PubChem BioAssay AID328 (DTP/NCI, 2004)
Several values for one entry are separate records, joined by “and”; a condition that tells them apart may be missing. Equal values may be shown once. Inconclusive results and toxic doses are left out.

System: BDF1 mice, P388 leukemia ip, median survival T/C
Experiment: NCI In Vivo Anticancer Drug Screen. Data for tumor model P388 Leukemia (intraperitoneal) in B6D2F1 (BDF1) mice
Details: endpoint: median survival time, higher = longer survival
Method in brief: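 Reported as T/C, where T is the survival measurement in dosed animals and C the same measurement in vehicle controls.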

[1] = dose: 50.0 mg/kg/injection, schedule: Q01DX009 (ip), vehicle: saline with Tween-80
[2] = dose: 100.0 mg/kg/injection, schedule: Q04DX003 (ip), vehicle: saline with Tween-80
[3] = dose: 50.0 mg/kg/injection, schedule: Q01DX009 (ip), vehicle: saline
[4] = dose: 100.0 mg/kg/injection, schedule: Q01DX009 (ip), vehicle: saline

Q: How did the T/C (dose: 6.25 mg/kg/injection, schedule: Q04DX003 (ip), vehicle: saline with Tween-80) turn out when `Clc1ccc(-c2cc(=[N+]3CCCCC3)ss2)cc1` was run?
A: Its T/C is 92 % of control.

Q: And the T/C (dose: 12.5 mg/kg/injection, schedule: Q04DX003 (ip), vehicle: saline with Tween-80)?
A: The T/C was 102 % of control and 103 % of control.

Q: What about the T/C (dose: 25.0 mg/kg/injection, schedule: Q01DX009 (ip), vehicle: saline with Tween-80) of the same compound?
A: The T/C was 110 % of control.

Q: What about the T/C (dose: 25.0 mg/kg/injection, schedule: Q04DX003 (ip), vehicle: saline with Tween-80) of the same compound?
A: Its T/C is 93 % of control and 94 % of control.

Q: And the T/C [1]?
A: The T/C was 110 % of control.

Q: What about the T/C (dose: 50.0 mg/kg/injection, schedule: Q04DX003 (ip), vehicle: saline with Tween-80) of the same compound?
A: The T/C was 98 % of control and 99 % of control and 119 % of control.

Q: What about the T/C [2] of the same compound?
A: The T/C was 100 % of control and 102 % of control and 114 % of control.

Q: For `CCOC(=O)/C(C#N)=C/c1cc2c3c(c1)CCCN3CCC2`, which T/C [2] is on record?
A: The T/C was 90 % of control.

Q: And the T/C (dose: 200.0 mg/kg/injection, schedule: Q04DX003 (ip), vehicle: saline with Tween-80)?
A: Its T/C is 90 % of control.

Q: And the T/C (dose: 400.0 mg/kg/injection, schedule: Q04DX003 (ip), vehicle: saline with Tween-80)?
A: Its T/C is 86 % of control.

Q: Which T/C (dose: 2.34 mg/kg/injection, schedule: Q01DX009 (ip), vehicle: alcohol) does the source give for `CC(C)CCNc1ccc(NCCC(C)C)cc1` here?
A: The T/C was 100 % of control.

Q: And the T/C (dose: 4.68 mg/kg/injection, schedule: Q01DX009 (ip), vehicle: alcohol)?
A: The T/C was 100 % of control.

Q: What about the T/C (dose: 9.37 mg/kg/injection, schedule: Q01DX009 (ip), vehicle: alcohol) of the same compound?
A: Its T/C is 112 % of control.

Q: What about the T/C (dose: 13.75 mg/kg/injection, schedule: Q04DX003 (ip), vehicle: alcohol) of the same compound?
A: Its T/C is 109 % of control.

Q: And the T/C (dose: 18.75 mg/kg/injection, schedule: Q01DX009 (ip), vehicle: alcohol)?
A: The T/C was 122 % of control.

Q: And the T/C (dose: 27.5 mg/kg/injection, schedule: Q04DX003 (ip), vehicle: alcohol)?
A: Its T/C is 109 % of control.

Q: `CCOC(=O)C(CCC(=O)OC)C1=NC(C)(C)CC(C)O1` (stereo not given) was tested. Which T/C (dose: 50.0 mg/kg/injection, schedule: Q01DX001 (ip), vehicle: saline sonified) did it give?
A: Its T/C is 104 % of control.

Q: And the T/C (dose: 100.0 mg/kg/injection, schedule: Q01DX001 (ip), vehicle: saline sonified)?
A: Its T/C is 100 % of control.

Q: What about the T/C (dose: 200.0 mg/kg/injection, schedule: Q01DX001 (ip), vehicle: saline sonified) of the same compound?
A: The T/C was 100 % of control.

Q: How did the T/C [3] turn out when `Cc1ccc(OC(=O)Nc2ccc(C(=O)O)c(O)c2)cc1` was run?
A: The T/C was 118 % of control.

Q: What about the T/C [4] of the same compound?
A: Its T/C is 109 % of control.

Q: And the T/C (dose: 100.0 mg/kg/injection, schedule: Q04DX003 (ip), vehicle: saline)?
A: Its T/C is 100 % of control.

Q: What about the T/C (dose: 200.0 mg/kg/injection, schedule: Q04DX003 (ip), vehicle: saline) of the same compound?
A: The T/C was 113 % of control.

Q: What does the source list for `N#CO`?
A: T/C (dose: 33.0 mg/kg/injection, schedule: Q01DX009 (ip), vehicle: saline): 103 % of control (2×) and 113 % of control; T/C (dose: 42.0 mg/kg/injection, schedule: Q01DX009 (ip), vehicle: saline): 109 % of control; T/C [3]: 96 % of control and 122 % of control; T/C (dose: 56.0 mg/kg/injection, schedule: Q01DX009 (ip), vehicle: saline): 90 % of control; T/C (dose: 75.0 mg/kg/injection, schedule: Q01DX009 (ip), vehicle: saline): 100 % of control and 121 % of control; T/C [4]: 109 % of control

Q: With `CCC1OC(=O)CC(O)C(C)C(OC2OC(C)C(O)C(N(C)C)C2O)C(CC=O)CC(C)C(=O)/C=C/C2(C)OC2C1C` (stereo not given) as the compound, how does the T/C (dose: 150.0 mg/kg/injection, schedule: Q01DX009 (ip), vehicle: Klucel (hydroxypropylcellulose) (HPC)) read?
A: Its T/C is 92 % of control.

Q: With `CCOC(=O)Nc1cncc(NC(=O)OCC)n1` as the compound, how does the T/C (dose: 6.25 mg/kg/injection, schedule: Q04DX003 (ip), vehicle: water) read?
A: Its T/C is 106 % of control.

Q: What about the T/C (dose: 12.5 mg/kg/injection, schedule: Q04DX003 (ip), vehicle: water) of the same compound?
A: The T/C was 100 % of control.

Q: And the T/C (dose: 25.0 mg/kg/injection, schedule: Q01DX009 (ip), vehicle: water)?
A: Its T/C is 100 % of control.

Q: What about the T/C (dose: 25.0 mg/kg/injection, schedule: Q04DX003 (ip), vehicle: water) of the same compound?
A: Its T/C is 105 % of control.

Q: What about the T/C (dose: 50.0 mg/kg/injection, schedule: Q01DX009 (ip), vehicle: water) of the same compound?
A: The T/C was 101 % of control.

Q: And the T/C (dose: 50.0 mg/kg/injection, schedule: Q04DX003 (ip), vehicle: water)?
A: Its T/C is 101 % of control.

Q: And the T/C (dose: 100.0 mg/kg/injection, schedule: Q01DX009 (ip), vehicle: water)?
A: The T/C was 93 % of control.

Q: What about the T/C (dose: 100.0 mg/kg/injection, schedule: Q04DX003 (ip), vehicle: water) of the same compound?
A: The T/C was 100 % of control.

Q: What about the T/C (dose: 200.0 mg/kg/injection, schedule: Q01DX009 (ip), vehicle: water) of the same compound?
A: The T/C was 95 % of control.

Q: And the T/C (dose: 400.0 mg/kg/injection, schedule: Q01DX009 (ip), vehicle: water)?
A: The T/C was 87 % of control.

Q: Which results are given for `CS(=O)(=O)CC(O)(c1ccccc1)c1cccs1` (stereo not given)?
A: T/C [1]: 99 % of control; T/C (dose: 100.0 mg/kg/injection, schedule: Q01DX009 (ip), vehicle: saline with Tween-80): 100 % of control; T/C (dose: 200.0 mg/kg/injection, schedule: Q01DX009 (ip), vehicle: saline with Tween-80): 100 % of control

Q: With `O=C(N/N=C\c1ccc(N(CCCl)CCCl)cc1)c1cccnc1` as the compound, how does the T/C (dose: 100.0 mg/kg/injection, schedule: Q01DX009 (ip), vehicle: gum acacia) read?
A: Its T/C is 112 % of control.

Q: And the T/C (dose: 200.0 mg/kg/injection, schedule: Q01DX009 (ip), vehicle: gum acacia)?
A: Its T/C is 172 % of control.
